# Measured values as given in PMC5218480 (PLoS ONE, 2017).
# Tested on: MV-4-11 cells
# Assay: Gene expression microarray analysis (Affymetrix PrimeView) and GSEA
# Assay type: cell-based, human
# Set-up: RFU PODN (11730768_x_at) / Fold change /veh PODN (11730768_x_at) / RFU LINC00158 (11744669_a_at) / Fold change /veh LINC00158 (11744669_a_at) / RFU DUSP10 (11751237_a_at) / Fold change /veh DUSP10 (11751237_a_at) / RFU ID3 (11757404_x_at) / Fold change /veh ID3 (11757404_x_at) / RFU PLEKHG5 (11737974_s_at) / Fold change /veh PLEKHG5 (11737974_s_at) / RFU LRRC4B (11730491_at) / Fold change /veh LRRC4B (11730491_at) / RFU GIMAP4 (11747438_a_at) / Fold change /veh GIMAP4 (11747438_a_at) / RFU KRT8 (11758183_x_at) / Fold change /veh KRT8 (11758183_x_at) / RFU CNN1 (11734310_a_at) / Fold change /veh CNN1 (11734310_a_at) / RFU VPS37D (11726825_at) / Fold change /veh VPS37D (11726825_at) / RFU C10orf10 (11716522_x_at) / Fold change /veh C10orf10 (11716522_x_at) / RFU KIR2DL2 /// KIR2DL4 /// KIR2DL5A /// KIR2DL5B /// KIR2DS1 /// KIR2DS2 /// KIR2DS3 /// KIR2DS4 /// KIR3DL3 /// KIR3DL3 /// KIR3DS1 (11738374_at) / Fold change /veh KIR2DL2 /// KIR2DL4 /// KIR2DL5A /// KIR2DL5B /// KIR2DS1 /// KIR2DS2 /// KIR2DS3 /// KIR2DS4 /// KIR3DL3 /// KIR3DL3 /// KIR3DS1 (11738374_at) / RFU C1QL1 (11718748_at) / Fold change /veh C1QL1 (11718748_at) / RFU TMPRSS4 (11747572_a_at) / Fold change /veh TMPRSS4 (11747572_a_at) / RFU HAMP (11756126_x_at) / Fold change /veh HAMP (11756126_x_at) / RFU RNFT2 (11725882_a_at) / Fold change /veh RNFT2 (11725882_a_at) / RFU NR4A2 (11747474_a_at) / Fold change /veh NR4A2 (11747474_a_at) / RFU ABCC12 (11746883_a_at) / Fold change /veh ABCC12 (11746883_a_at) / RFU TMEM136 (11760407_x_at) / Fold change /veh TMEM136 (11760407_x_at) / RFU CLDN22 /// WWC2 (11732394_at) / Fold change /veh CLDN22 /// WWC2 (11732394_at) / RFU HLA-DPB1 (11760878_x_at) / Fold change /veh HLA-DPB1 (11760878_x_at) / RFU SPINT1 (11716480_a_at) / Fold change /veh SPINT1 (11716480_a_at) / RFU GAP43 (11754022_s_at) / Fold change /veh GAP43 (11754022_s_at) / RFU A4GNT (11735810_at) / Fold change /veh A4GNT (11735810_at) / RFU PRB3 (11715151_x_at) / Fold change /veh PRB3 (11715151_x_at) / RFU TUBB4B (11761932_at) / Fold change /veh TUBB4B (11761932_at) / RFU CAPN14 (11732068_a_at) / Fold change /veh CAPN14 (11732068_a_at) / RFU TMCC2 (11721928_a_at) / Fold change /veh TMCC2 (11721928_a_at) / RFU IRGQ (11745062_a_at) / Fold change /veh IRGQ (11745062_a_at) / RFU FAM174B (11720279_a_at) / Fold change /veh FAM174B (11720279_a_at) / RFU TMPRSS4 (11748680_a_at) / Fold change /veh TMPRSS4 (11748680_a_at) / RFU FAM212B (11763350_a_at) / Fold change /veh FAM212B (11763350_a_at) / RFU PLEKHG5 (11743358_a_at) / Fold change /veh PLEKHG5 (11743358_a_at) / RFU ZSCAN30 (11745921_a_at) / Fold change /veh ZSCAN30 (11745921_a_at) / RFU CMKLR1 (11741424_a_at) / Fold change /veh CMKLR1 (11741424_a_at) / RFU LOC101060620 /// MAPK8IP1 (11723275_at) / Fold change /veh LOC101060620 /// MAPK8IP1 (11723275_at) / RFU SPTSSB (11747773_x_at) / Fold change /veh SPTSSB (11747773_x_at) / RFU PRSS12 (11739890_at) / Fold change /veh PRSS12 (11739890_at) / RFU BIN1 (11741810_x_at) / Fold change /veh BIN1 (11741810_x_at) / RFU WNT11 (11732464_a_at) / Fold change /veh WNT11 (11732464_a_at) / RFU C10orf10 (11716521_a_at) / Fold change /veh C10orf10 (11716521_a_at) / RFU C5orf56 (11738089_at) / Fold change /veh C5orf56 (11738089_at) / RFU CYB561 (11721691_x_at) / Fold change /veh CYB561 (11721691_x_at) / RFU ANKRD19P (11752326_a_at) / Fold change /veh ANKRD19P (11752326_a_at) / RFU OR2T12 /// OR2T33 /// OR2T8 (11738714_s_at) / Fold change /veh OR2T12 /// OR2T33 /// OR2T8 (11738714_s_at) / RFU VCAN (11748164_a_at) / Fold change /veh VCAN (11748164_a_at) / RFU JSRP1 (11732532_at) / Fold change /veh JSRP1 (11732532_at) / RFU KRTAP10-11 (11738290_x_at) / Fold change /veh KRTAP10-11 (11738290_x_at) / RFU MYO3A (11730013_a_at) / Fold change /veh MYO3A (11730013_a_at) / RFU EBF3 (11725865_a_at) / Fold change /veh EBF3 (11725865_a_at) / RFU CAMK2N1 (11719241_x_at) / Fold change /veh CAMK2N1 (11719241_x_at) / RFU C5orf56 (11738088_a_at) / Fold change /veh C5orf56 (11738088_a_at) / RFU OLFML3 (11715873_a_at) / Fold change /veh OLFML3 (11715873_a_at) / RFU LOC100653217 /// NTM (11731650_a_at) / Fold change /veh LOC100653217 /// NTM (11731650_a_at) / RFU MAPK11 (11762145_a_at) / Fold change /veh MAPK11 (11762145_a_at) / RFU FIZ1 (11724087_x_at) / Fold change /veh FIZ1 (11724087_x_at) / RFU OASL (11726364_x_at) / Fold change /veh OASL (11726364_x_at) / RFU SOX15 (11748057_x_at) / Fold change /veh SOX15 (11748057_x_at) / RFU CD79A (11719716_a_at) / Fold change /veh CD79A (11719716_a_at) / RFU HIST1H1D (11736915_at) / Fold change /veh HIST1H1D (11736915_at) / RFU CASKIN2 (11723855_a_at) / Fold change /veh CASKIN2 (11723855_a_at) / RFU LOC730098 (11760151_x_at) / Fold change /veh LOC730098 (11760151_x_at) / RFU OR4N2 (11742367_at) / Fold change /veh OR4N2 (11742367_at) / RFU PRRT2 (11749266_a_at) / Fold change /veh PRRT2 (11749266_a_at) / RFU SNX32 (11753110_a_at) / Fold change /veh SNX32 (11753110_a_at) / RFU CDHR5 (11726645_a_at) / Fold change /veh CDHR5 (11726645_a_at) / RFU RCAN1 (11760418_a_at) / Fold change /veh RCAN1 (11760418_a_at) / RFU FAM167A (11723789_a_at) / Fold change /veh FAM167A (11723789_a_at) / RFU FAM26E (11764081_at) / Fold change /veh FAM26E (11764081_at) / RFU ISYNA1 (11749810_s_at) / Fold change /veh ISYNA1 (11749810_s_at) / RFU ACY1 (11761880_at) / Fold change /veh ACY1 (11761880_at) / RFU 11764098_at / Fold change /veh 11764098_at / RFU SAMD14 (11745864_x_at) / Fold change /veh SAMD14 (11745864_x_at) / RFU NPB (11741838_a_at) / Fold change /veh NPB (11741838_a_at) / RFU TMPRSS6 (11731388_a_at) / Fold change /veh TMPRSS6 (11731388_a_at) / RFU KRTAP10-2 (11738614_at) / Fold change /veh KRTAP10-2 (11738614_at) / RFU ARHGAP8 /// PRR5-ARHGAP8 (11727945_x_at) / Fold change /veh ARHGAP8 /// PRR5-ARHGAP8 (11727945_x_at) / RFU KRTAP5-7 /// NADSYN1 (11734609_at) / Fold change /veh KRTAP5-7 /// NADSYN1 (11734609_at) / RFU RASL12 (11751679_a_at) / Fold change /veh RASL12 (11751679_a_at) / RFU CDKN2B (11736163_a_at) / Fold change /veh CDKN2B (11736163_a_at) / RFU PRF1 (11729649_at) / Fold change /veh PRF1 (11729649_at) / RFU, ZNF638 /// ZNF638-IT1 / Fold change vs veh, ZNF638 /// ZNF638-IT1 / RFU, PANK3 / Fold change vs veh, PANK3 / RFU, SH3YL1 / Fold change vs veh, SH3YL1 / RFU, ZEB2 / Fold change vs veh, ZEB2 / RFU, NRIP1 / Fold change vs veh, NRIP1 / RFU, PTTG1IP / Fold change vs veh, PTTG1IP / RFU, CAPN2 / Fold change vs veh, CAPN2 / RFU, MED14 / Fold change vs veh, MED14 / RFU, SNORA58 / Fold change vs veh, SNORA58 / RFU, C1orf63 / Fold change vs veh, C1orf63 / RFU, LRRFIP1 / Fold change vs veh, LRRFIP1 / RFU, NDUFAF7 / Fold change vs veh, NDUFAF7 / RFU, SLC12A2 / Fold change vs veh, SLC12A2 / RFU, IBTK / Fold change vs veh, IBTK / RFU, ESF1 / Fold change vs veh, ESF1 / Fold change vs veh, TMEM50B / RFU, TAOK1 / Fold change vs veh, TAOK1 / RFU, ACBD3 / Fold change vs veh, ACBD3 / RFU, TMA16 / Fold change vs veh, TMA16 / RFU, RWDD3 / Fold change vs veh, RWDD3 / RFU, BCAT1 / Fold change vs veh, BCAT1 / RFU, EDEM3 / Fold change vs veh, EDEM3 / RFU, TMEM33 / Fold change vs veh, TMEM33 / RFU, WDR75 / Fold change vs veh, WDR75 / RFU, AHCTF1 / Fold change vs veh, AHCTF1 / RFU, TFRC / Fold change vs veh, TFRC / RFU, ZDHHC17 / Fold change vs veh, ZDHHC17 / RFU, NOM1 / Fold change vs veh, NOM1 / RFU, ARL8B / Fold change vs veh, ARL8B / RFU, ZBTB11 / Fold change vs veh, ZBTB11 / RFU, TAMM41 / Fold change vs veh, TAMM41 / RFU, KIAA1704 /// LOC100996395 / Fold change vs veh, KIAA1704 /// LOC100996395 / RFU, ING1 / Fold change vs veh, ING1 / RFU, TRMT61B / Fold change vs veh, TRMT61B / RFU, FUBP3 / Fold change vs veh, FUBP3 / RFU, TP53 / Fold change vs veh, TP53 / RFU, TNKS2 / Fold change vs veh, TNKS2 / RFU, ZFP14 / Fold change vs veh, ZFP14 / RFU, ACTR2 / Fold change vs veh, ACTR2 / RFU, PPP3R1 / Fold change vs veh, PPP3R1 / RFU, PIK3R1 / Fold change vs veh, PIK3R1 / RFU, HNRNPA1 / Fold change vs veh, HNRNPA1 / RFU, RNF170 / Fold change vs veh, RNF170 / RFU, ZNF28 / Fold change vs veh, ZNF28 / RFU, RNGTT / Fold change vs veh, RNGTT / RFU, OGT / Fold change vs veh, OGT / RFU, BRD1 / Fold change vs veh, BRD1 / RFU, MARS / Fold change vs veh, MARS / RFU, ZNF655 / Fold change vs veh, ZNF655 / RFU, FAHD1 / Fold change vs veh, FAHD1 / RFU, BDP1 / Fold change vs veh, BDP1 / RFU, LRRCC1 / Fold change vs veh, LRRCC1 / RFU, ARID1A / Fold change vs veh, ARID1A / RFU, ZNF146 / Fold change vs veh, ZNF146 / RFU, ZNF330 / Fold change vs veh, ZNF330 / RFU, GPN3 / Fold change vs veh, GPN3 / RFU, C9orf123 / Fold change vs veh, C9orf123 / RFU, N4BP2L2 / Fold change vs veh, N4BP2L2 / RFU, ARFIP1 / Fold change vs veh, ARFIP1 / RFU, FAM179B / Fold change vs veh, FAM179B / RFU, BCL10 / Fold change vs veh, BCL10 / RFU, UHRF1BP1L / Fold change vs veh, UHRF1BP1L / RFU, BET1 / Fold change vs veh, BET1 / RFU, CNOT2 / Fold change vs veh, CNOT2 / RFU, ZNF268 / Fold change vs veh, ZNF268 / Fold change vs veh, ZNF507 / RFU, DGCR2 / Fold change vs veh, DGCR2 / RFU, WDSUB1 / Fold change vs veh, WDSUB1 / Fold change vs veh, HSP90B1 /// MIR3652 / RFU, ADSS / Fold change vs veh, ADSS / RFU, GK / Fold change vs veh, GK / RFU, ZNF148 / Fold change vs veh, ZNF148 / RFU, TAF9 / Fold change vs veh, TAF9 / RFU, SLC1A5 / Fold change vs veh, SLC1A5 / RFU, SLMO2 / Fold change vs veh, SLMO2 / RFU, ABCC4 / Fold change vs veh, ABCC4 / RFU, LOC101060439 /// RAP1B / Fold change vs veh, LOC101060439 /// RAP1B / RFU, RFX7 / Fold change vs veh, RFX7 / RFU, GTPBP10 / Fold change vs veh, GTPBP10 / RFU, CNEP1R1 / Fold change vs veh, CNEP1R1 / RFU, BIVM-ERCC5 /// ERCC5 / Fold change vs veh, BIVM-ERCC5 /// ERCC5 / RFU, ILF3 / Fold change vs veh, ILF3 / RFU 11762660_at / Fold change /veh 11762660_at / RFU VCAN (11757783_s_at) / Fold change /veh VCAN (11757783_s_at) / RFU DDX43 (11728927_at) / Fold change /veh DDX43 (11728927_at) / RFU KRT8 (11758188_x_at) / Fold change /veh KRT8 (11758188_x_at) / RFU NKD1 (11759106_at) / Fold change /veh NKD1 (11759106_at) / RFU SRD5A1 (11742802_a_at) / Fold change /veh SRD5A1 (11742802_a_at) / RFU TPSAB1 /// TPSB2 (11721975_s_at) / Fold change /veh TPSAB1 /// TPSB2 (11721975_s_at) / RFU GSTM3 (11746129_a_at) / Fold change /veh GSTM3 (11746129_a_at) / RFU IL23R (11737362_x_at) / Fold change /veh IL23R (11737362_x_at) / RFU TMEM51 (11727254_a_at) / Fold change /veh TMEM51 (11727254_a_at) / RFU PIWIL2 (11732686_x_at) / Fold change /veh PIWIL2 (11732686_x_at) / RFU ORM1 (11744905_x_at) / Fold change /veh ORM1 (11744905_x_at) / RFU CCDC152 (11743942_at) / Fold change /veh CCDC152 (11743942_at) / RFU ECM1 (11717891_a_at) / Fold change /veh ECM1 (11717891_a_at) / RFU IL23R (11748794_a_at) / Fold change /veh IL23R (11748794_a_at) / RFU TNFAIP8L3 (11732012_x_at) / Fold change /veh TNFAIP8L3 (11732012_x_at) / RFU MBOAT4 (11741988_at) / Fold change /veh MBOAT4 (11741988_at) / RFU 11764193_at / Fold change /veh 11764193_at / RFU TMEM53 (11763286_at) / Fold change /veh TMEM53 (11763286_at) / RFU MAGEB2 (11727129_at) / Fold change /veh MAGEB2 (11727129_at) / RFU TMEM200A (11744735_a_at) / Fold change /veh TMEM200A (11744735_a_at) / RFU CCDC152 (11751479_a_at) / Fold change /veh CCDC152 (11751479_a_at) / RFU FAM211A (11726209_a_at) / Fold change /veh FAM211A (11726209_a_at) / RFU RGS16 (11746705_a_at) / Fold change /veh RGS16 (11746705_a_at) / RFU VCAN (11755009_s_at) / Fold change /veh VCAN (11755009_s_at) / RFU RHOB (11743442_s_at) / Fold change /veh RHOB (11743442_s_at) / RFU RGS16 (11720943_a_at) / Fold change /veh RGS16 (11720943_a_at) / RFU RGS16 (11720944_at) / Fold change /veh RGS16 (11720944_at) / RFU, VPS4B / Fold change vs veh, VPS4B / RFU, CREB1 / Fold change vs veh, CREB1 / RFU, DNAJC13 / Fold change vs veh, DNAJC13 / RFU, GNAQ / Fold change vs veh, GNAQ / RFU, CDK5R1 / Fold change vs veh, CDK5R1 / RFU, ZRANB3 / Fold change vs veh, ZRANB3 / RFU, CUL4A / Fold change vs veh, CUL4A / RFU, CCNY / Fold change vs veh, CCNY / RFU, UFL1 / Fold change vs veh, UFL1 / RFU, COG3 / Fold change vs veh, COG3 / RFU, DIAPH2 / Fold change vs veh, DIAPH2 / RFU, SKA2 / Fold change vs veh, SKA2 / RFU, AFF3 / Fold change vs veh, AFF3 / RFU, LMF1 / Fold change vs veh, LMF1 / RFU, IPO11 / Fold change vs veh, IPO11 / RFU, DFFB / Fold change vs veh, DFFB / RFU, FOXP1 / Fold change vs veh, FOXP1 / RFU, CARD8 / Fold change vs veh, CARD8 / RFU, STRN3 / Fold change vs veh, STRN3 / RFU, ADK / Fold change vs veh, ADK / RFU, RASSF2 / Fold change vs veh, RASSF2 / RFU, WIPF1 / Fold change vs veh, WIPF1 / RFU, LARP1B / Fold change vs veh, LARP1B / RFU, RASA1 / Fold change vs veh, RASA1 / RFU, RB1 / Fold change vs veh, RB1 / RFU, PPFIA1 / Fold change vs veh, PPFIA1 / RFU, MAT2A / Fold change vs veh, MAT2A / RFU, CCT5 / Fold change vs veh, CCT5 / RFU, WDR92 / Fold change vs veh, WDR92 / RFU, CUX1 / Fold change vs veh, CUX1 / RFU, TTC7A / Fold change vs veh, TTC7A / RFU, TMEM135 / Fold change vs veh, TMEM135 / RFU, DEPTOR / Fold change vs veh, DEPTOR / RFU, CPM / Fold change vs veh, CPM / RFU, DNAJB6 / Fold change vs veh, DNAJB6 / RFU, CACNA2D3 / Fold change vs veh, CACNA2D3 / RFU, DTX4 / Fold change vs veh, DTX4 / RFU, TFCP2 / Fold change vs veh, TFCP2 / RFU, GMCL1 /// GMCL1P1 / Fold change vs veh, GMCL1 /// GMCL1P1 / RFU, AEBP2 / Fold change vs veh, AEBP2 / RFU, SNHG1 /// SNORD22 /// SNORD25 /// SNORD26 /// SNORD27 /// SNORD28 /// SNORD29 /// SNORD31 / Fold change vs veh, SNHG1 /// SNORD22 /// SNORD25 /// SNORD26 /// SNORD27 /// SNORD28 /// SNORD29 /// SNORD31 / Fold change (Aza/veh), C12orf56 (ProbeSet 11735607_a_at) / Fold change (ACY-1035/veh), C12orf56 (ProbeSet 11735607_a_at) / Fold change (Aza/veh), FGFR1OP (ProbeSet 11751329_s_at) / Fold change (ACY-1035/veh), FGFR1OP (ProbeSet 11751329_s_at) / Fold change (Aza/veh), VPS36 (ProbeSet 11739960_a_at) / Fold change (ACY-1035/veh), VPS36 (ProbeSet 11739960_a_at) / RFU SYPL1 (11715823_x_at) / Fold change /veh SYPL1 (11715823_x_at) / RFU IGFBP7 (11715501_s_at) / Fold change /veh IGFBP7 (11715501_s_at) / RFU REEP3 (11722064_at) / Fold change /veh REEP3 (11722064_at) / RFU IGLL1 (11728026_x_at) / Fold change /veh IGLL1 (11728026_x_at): dose or concentration left out as unconfirmed
# Details: ProbeSet 11716999_a_at; LIST D
smiles,measurement,value
Nc1ncn([C@@H]2O[C@H](CO)[C@@H](O)[C@H]2O)c(=O)n1 [azacitidine],"Fold change vs veh, RASA1",0.72
